Measurements from patent US20240425483A1, “INDOLINES AS PROTAC COMPOUNDS” (NeoPhore Limited, priority 2021, published 2024).

The compounds below were run against T1, PMS2 protein (Homo sapiens, UniProt P54278) (assay: PROTAC screening in SW620 human colorectal carcinoma cells, PMS2 protein level by JESS Western blot). Settings: SW-620, 24 h, 1 uM compound, normalised to actin and DMSO control, Table A1.
T1 construct: host or cells: SW620 human colorectal carcinoma cells
T1 sequence (P54278 1-862): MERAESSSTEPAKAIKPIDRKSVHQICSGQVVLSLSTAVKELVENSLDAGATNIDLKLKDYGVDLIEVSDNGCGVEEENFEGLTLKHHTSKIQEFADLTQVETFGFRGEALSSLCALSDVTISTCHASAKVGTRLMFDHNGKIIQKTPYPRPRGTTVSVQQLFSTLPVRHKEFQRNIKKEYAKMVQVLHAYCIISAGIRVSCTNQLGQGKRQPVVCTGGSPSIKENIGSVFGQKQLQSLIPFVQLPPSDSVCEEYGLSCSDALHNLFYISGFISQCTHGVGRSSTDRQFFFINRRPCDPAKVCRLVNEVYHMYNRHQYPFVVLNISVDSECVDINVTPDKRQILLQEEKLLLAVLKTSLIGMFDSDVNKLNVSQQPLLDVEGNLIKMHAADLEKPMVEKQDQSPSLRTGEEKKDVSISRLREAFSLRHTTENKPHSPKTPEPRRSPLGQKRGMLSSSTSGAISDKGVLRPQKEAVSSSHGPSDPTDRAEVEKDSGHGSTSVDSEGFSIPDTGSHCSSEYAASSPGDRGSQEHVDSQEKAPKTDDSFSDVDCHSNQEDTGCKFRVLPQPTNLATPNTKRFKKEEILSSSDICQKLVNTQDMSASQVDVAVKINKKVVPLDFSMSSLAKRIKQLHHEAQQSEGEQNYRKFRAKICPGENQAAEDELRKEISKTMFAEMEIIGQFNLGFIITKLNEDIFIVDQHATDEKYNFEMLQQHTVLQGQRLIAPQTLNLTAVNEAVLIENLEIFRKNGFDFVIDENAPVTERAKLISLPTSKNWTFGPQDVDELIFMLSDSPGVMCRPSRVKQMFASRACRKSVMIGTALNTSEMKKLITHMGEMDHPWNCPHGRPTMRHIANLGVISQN
Format: cell-based
Description: PROTAC Screening Protocol Using SW620 Human Colorectal Carcinoma Cells
SVW620 cells (ATCC/[…]) were cultured in T75 Falcon flasks in culture media (F12/DMEM 1:1 media, 10% FCS, +L-G supplement). Cells were split twice a week, for a maximum of 6 weeks. Media was aspirated, and cells washed with 10 mL of sterile PBS. PBS was aspirated, and cells incubated with 1.5 mL TrypLE for up to 5 minutes at 37° C., 5% CO2. Once cells had detached, TrypLE was neutralised with 10 mL culture media and cells mixed 1:1 with Trypan blue and quantified using a Luna cell counter. Cells were then seeded into fresh T75 flasks with 1×10^6 cells and 10 mL culture media.
SW620 cells, cultured and counted as above, were used to seed 12 well plates at a density of 1.5×10^5 cells/well and incubated overnight at 37° C., 5% CO2. Test compounds were solubilized in DMSO to a stock concentration of 10 mM and serially diluted in DMSO and media to their test concentration; the final concentration of DMSO was 0.1% (v/v). Each concentration was tested in triplicate. SW620 cells were incubated with test compound for 24 hours at 37° C., 5% CO2. Media was aspirated from each well, and each well washed with 1 mL ice cold PBS. PBS was then aspirated, and 50 μL of cold lysis buffer (RIPA buffer supplemented with 1× protease inhibitors, Benzonase, MgCl) was added to each well; plates were then incubated on ice for 5 minutes. Cells were scraped using a pipette tip before being transferred to a fresh Eppendorf. Samples were spun at maximum speed in a benchtop centrifuge for 5 minutes at 4° C. and supernatant was then transferred to fresh tubes. Samples were stored at −80° C. until analysis.
Bicinchonininic acid (BCA) protein assay standards (2-0.125 mg/mL BSA) were prepared in advance. 6 μL of each standard was pipetted in duplicate into rows A and B of a 384-well assay plate. Test samples were diluted in lysis buffer (1:3-1:10) in a 384-well plate in duplicate. BCA Reagents were combined 50:1, Part A:Part B and 50 μL added to each well. Plates were incubated for 30 min at 37° C. in a plate incubator and read using a BCA protein 384 protocol on an EnSpire plate reader. Protein concentrations were calculated from a standard curve.
JESS Western Blot Protocol
Protein lysates were prepared using Protein Simple EZ standard pack reagents: 40 μL distilled H2O was added to a DTT tube (clear) and treated with 20 μL 10× sample buffer and 20 μL DTT to 5×MM tube (pink). 20 μL dH2O was added to biotinylated ladder tube (green).
Test samples were prepared by dilution to the required concentration (0.1 mg/mL) in 0.1× sample buffer. 1.25 μL 5× fluorescent master mix from the EZ standard pack was added to 5 μL sample for each lane to be loaded (e.g. 2.5 μL+10 μL if loading same sample into 2 wells). Samples were vortexed, briefly spun down and heated at 95° C. for 5 min in a PCR machine then vortexed again and briefly spun down before loading onto JESS cassettes (catalogue No: SM-W004) according to manufacturer's instructions (https://www.proteinsimple.com/technical_library.html?product=simplewestern&def_list=list). Protein expression was determined by the peak area of the target protein signal. Peak area of the target protein was normalised to peak area of the loading control (actin) and to DMSO control.

SMILES	remaining activity at 1 µM [%]
Cc1ncsc1-c1ccc(CNC(=O)[C@@H]2C[C@@H](O)CN2C(=O)[C@@H](NC(=O)CCCCCCC(=O)N2CCN(Cc3ccc4c(c3)CN(C(=O)c3c(O)cc(O)c(C)c3OCC3CCCCC3)C4)CC2)C(C)(C)C)cc1 [Example 27, (2S,4R)-1-[(2S)-2-[[8-[4-[[2-[2-(Cyclohexylmethoxy)-4,6-dihydroxy-3-methyl-benzoyl]isoindolin-5-yl]methyl]piperazin-1-yl]-8-oxo-octanoyl]amino]-3,3-dimethyl-butanoyl]-4-hydroxy-N-[[4-(4-methylthiazol-5-yl)phenyl]methyl]pyrrolidine-2-carboxamide]	< 10
Cc1ncsc1-c1ccc(CNC(=O)[C@@H]2C[C@@H](O)CN2C(=O)[C@@H](NC(=O)CCCCCCCCC(=O)N2CCN(Cc3ccc4c(c3)CN(C(=O)c3c(O)cc(O)c(C)c3OCC3CCCCC3)C4)CC2)C(C)(C)C)cc1 [Example 29, (2S,4R)-1-[(2S)-2-[[10-[4-[[2-[2-(Cyclohexylmethoxy)-4,6-dihydroxy-3-methyl-benzoyl]isoindolin-5-yl]methyl]piperazin-1-yl]-10-oxo-decanoyl]amino]-3,3-dimethyl-butanoyl]-4-hydroxy-N-[[4-(4-methylthiazol-5-yl)phenyl]methyl]pyrrolidine-2-carboxamide]	< 10
Cc1c(O)cc(O)c(C(=O)N2Cc3ccc(CN4CCN(CCOCCOCCOCCOCCOCCNc5cccc6c5C(=O)N(C5CCC(=O)NC5=O)C6=O)CC4)cc3C2)c1OCC1CCCCC1 (stereo not shown) [Example 7, 4-[2-[2-[2-[2-[2-[2-[4-[[2-[2-(Cyclohexylmethoxy)-4,6-dihydroxy-3-methyl-benzoyl]isoindolin-5-yl]methyl]piperazin-1-yl]ethoxy]ethoxy]ethoxy]ethoxy]ethoxy]ethylamino]-2-(2,6-dioxo-3-piperidyl)isoindoline-1,3-dione]	10 to 25

The next lines start with the values.

remaining activity at 1 µM [%]	SMILES
< 10	Cc1c(O)cc(O)c(C(=O)N2Cc3ccc(CN4CCN(CCOCCOCCOCCOCCNc5ccc6c(c5)C(=O)N(C5CCC(=O)NC5=O)C6=O)CC4)cc3C2)c1OCc1ccccc1 (stereo not shown) [Example 19, 5-[2-[2-[2-[2-[2-[4-[[2-(2-Benzyloxy-4,6-dihydroxy-3-methyl-benzoyl)isoindolin-5-yl]methyl]piperazin-1-yl]ethoxy]ethoxy]ethoxy]ethoxy]ethylamino]-2-(2,6-dioxo-3-piperidyl)isoindoline-1,3-dione]
< 10	Cc1c(O)cc(O)c(C(=O)N2Cc3ccc(CN4CCN(CCOCCOCCOCCOCCNc5cccc6c5C(=O)N(C5CCC(=O)NC5=O)C6=O)CC4)cc3C2)c1OCC1CCCCC1 (stereo not shown) [Example 6, 4-[2-[2-[2-[2-[2-[4-[[2-[2-(Cyclohexylmethoxy)-4,6-dihydroxy-3-methyl-benzoyl]isoindolin-5-yl]methyl]piperazin-1-yl]ethoxy]ethoxy]ethoxy]ethoxy]ethylamino]-2-(2,6-dioxo-3-piperidyl)isoindoline-1,3-dione]
25 to 50	Cc1c(O)cc(O)c(C(=O)N2Cc3ccc(CN4CCN(CCOCCOCCNc5cccc6c5C(=O)N(C5CCC(=O)NC5=O)C6=O)CC4)cc3C2)c1OCc1ccccc1 (stereo not shown) [Example 2, 4-((2-(2-(2-(4-((2-(2-(Benzyloxy)-4,6-dihydroxy-3-methylbenzoyl)isoindolin-5-yl)methyl)piperazin-1-yl)ethoxy)ethoxy)ethyl)amino)-2-(2,6-dioxopiperidin-3-yl)isoindoline-1,3-dione]

Same assay, conditions: SW-620, 24 h, 1 uM compound, upon further testing, Table A2

remaining activity at 1 µM [%]	SMILES
10 to 25	Cc1c(O)cc(O)c(C(=O)N2Cc3ccc(CN4CCN(CCOCCOCCNc5cccc6c5C(=O)N(C5CCC(=O)NC5=O)C6=O)CC4)cc3C2)c1OCc1ccccc1 (stereo not shown) [Example 2, 4-((2-(2-(2-(4-((2-(2-(Benzyloxy)-4,6-dihydroxy-3-methylbenzoyl)isoindolin-5-yl)methyl)piperazin-1-yl)ethoxy)ethoxy)ethyl)amino)-2-(2,6-dioxopiperidin-3-yl)isoindoline-1,3-dione]
